{"source": "patent US20220117903A1", "about": "“DRUG DELIVERY SYSTEM AND METHOD” (SEOUL NATIONAL UNIVERSITY R&DB FOUNDATION, priority 2019, published 2022)", "test_system": "4T1 tumors", "assay": "Therapeutic efficacy in mice bearing 4T1 tumors", "assay_type": "in vivo", "settings": "doxorubicin equivalent 5 mg/kg, four treatments once every 3 days", "method": "Referring to FIGS. 22 and 23, the amounts of doxorubicin in four groups are equivalent at 5 mg/kg, and all mice received a total of four treatments once every 3 days."}
{"smiles": "COc1cccc2c1C(=O)c1c(O)c3c(c(O)c1C2=O)C[C@@](O)(C(=O)CO)C[C@@H]3O[C@H]1C[C@H](N)[C@H](O)[C@H](C)O1", "note": "[free doxorubicin, doxorubicin]", "values": [{"measurement": "effect on tumor progression / tumor growth", "value": "Neither mice treated with free doxorubicin nor with MSNs-Tz/anti-CD11b-TCO without doxorubicin had an effect on tumor progression"}]}
